From paper doi:10.1101/2021.11.20.466133v3 (biorxiv, 2022)

What was measured:
MsDisA [1] = biological target: T1, MsDisA (Mycolicibacterium smegmatis, UniProt A0R564); test: biochemical
MsDisA [2] = biological target: T1, MsDisA; settings: substrate inhibition by ATP; pH 7.5; 37 °C; 5 mM MgCl2
MsPDE = MsPDE (Mycolicibacterium smegmatis, UniProt A0QVM9); test: HPLC AMP formation, substrate inhibition model; type: biochemical; settings: substrate inhibition by c-di-AMP; pH 7.5; 5 mM MgCl2
MsPDE, sequence (A0QVM9 1-340): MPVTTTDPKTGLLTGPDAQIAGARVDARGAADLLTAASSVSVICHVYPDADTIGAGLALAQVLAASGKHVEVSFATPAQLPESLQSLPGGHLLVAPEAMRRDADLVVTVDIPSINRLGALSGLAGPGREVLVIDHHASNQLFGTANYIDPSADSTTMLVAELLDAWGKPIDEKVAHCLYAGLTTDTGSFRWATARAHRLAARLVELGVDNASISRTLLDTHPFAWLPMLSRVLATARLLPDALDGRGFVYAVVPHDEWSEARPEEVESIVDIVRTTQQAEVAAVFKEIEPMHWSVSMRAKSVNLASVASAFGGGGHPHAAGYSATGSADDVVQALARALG

T1 sequence (A0R564 whole entry): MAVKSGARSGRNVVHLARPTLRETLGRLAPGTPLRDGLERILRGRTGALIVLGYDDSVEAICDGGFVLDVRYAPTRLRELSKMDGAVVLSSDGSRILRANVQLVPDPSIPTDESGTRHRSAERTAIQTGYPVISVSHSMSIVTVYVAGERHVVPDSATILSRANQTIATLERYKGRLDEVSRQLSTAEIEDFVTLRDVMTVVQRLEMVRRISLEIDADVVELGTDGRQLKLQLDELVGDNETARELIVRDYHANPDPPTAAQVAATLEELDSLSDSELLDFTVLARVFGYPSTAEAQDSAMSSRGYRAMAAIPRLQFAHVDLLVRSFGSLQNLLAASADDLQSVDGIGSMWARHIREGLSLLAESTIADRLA

Ki (MsPDE) | Compound | Kd (MsDisA [1]) | Ki (MsDisA [2])
 | Nc1ncnc2c1ncn2[C@@H]1O[C@H](COP(=O)(O)OP(=O)(O)OP(=O)(O)O)[C@@H](O)[C@H]1O [ATP] | 2.4 µM | 1430 µM
1120 µM | Nc1ncnc2c1ncn2[C@@H]1O[C@@H]2COP(=O)(O)O[C@H]3[C@@H](O)[C@H](n4cnc5c(N)ncnc54)O[C@@H]3COP(=O)(O)O[C@H]2[C@H]1O [c-di-AMP] |  | 
